From the kinase profiling compilation of Christmann-Franck et al. (2016)
Values joined by “and” are separate entries in the source; they are usually repeats but may differ in a detail not shown here. Identical values can stand only once.

Tests used:
Assay in all cases: radiometric filter-binding kinase assay, Kinase HotSpot
Details in all cases: compound 0.5 µM; ATP 10 µM
ABL1 (human) = ABL1 (human) (UniProt P00519)
ACVRL1 (human) = ACVRL1 (human) (UniProt P37023)
AURKC (human) = AURKC (human) (UniProt Q9UQB9)
AURKC (human), sequence (Q9UQB9 whole entry, looked up): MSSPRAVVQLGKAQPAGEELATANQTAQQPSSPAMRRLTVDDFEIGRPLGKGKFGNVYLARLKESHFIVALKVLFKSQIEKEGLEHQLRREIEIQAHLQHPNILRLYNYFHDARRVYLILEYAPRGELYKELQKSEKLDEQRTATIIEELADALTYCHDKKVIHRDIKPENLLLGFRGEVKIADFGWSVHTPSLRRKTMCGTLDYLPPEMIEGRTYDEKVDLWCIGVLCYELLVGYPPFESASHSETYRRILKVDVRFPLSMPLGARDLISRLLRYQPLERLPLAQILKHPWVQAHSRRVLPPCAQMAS

CAMK2G (human) = CAMK2G (human) (UniProt Q13555)
CDC42BPB (human) = CDC42BPB (human) (UniProt Q9Y5S2)
CDK9 CCNK (human) = CDK9 CCNK (human) (UniProt O75909+P50750)
CSF1R (human) = CSF1R (human) (UniProt P07333)
CSNK1D (human) = CSNK1D (human) (UniProt P48730)
CSNK2A1 (human) = CSNK2A1 (human) (UniProt P68400)
DAPK1 (human) = DAPK1 (human) (UniProt P53355)
DAPK1 (human), sequence (P53355 whole entry, looked up): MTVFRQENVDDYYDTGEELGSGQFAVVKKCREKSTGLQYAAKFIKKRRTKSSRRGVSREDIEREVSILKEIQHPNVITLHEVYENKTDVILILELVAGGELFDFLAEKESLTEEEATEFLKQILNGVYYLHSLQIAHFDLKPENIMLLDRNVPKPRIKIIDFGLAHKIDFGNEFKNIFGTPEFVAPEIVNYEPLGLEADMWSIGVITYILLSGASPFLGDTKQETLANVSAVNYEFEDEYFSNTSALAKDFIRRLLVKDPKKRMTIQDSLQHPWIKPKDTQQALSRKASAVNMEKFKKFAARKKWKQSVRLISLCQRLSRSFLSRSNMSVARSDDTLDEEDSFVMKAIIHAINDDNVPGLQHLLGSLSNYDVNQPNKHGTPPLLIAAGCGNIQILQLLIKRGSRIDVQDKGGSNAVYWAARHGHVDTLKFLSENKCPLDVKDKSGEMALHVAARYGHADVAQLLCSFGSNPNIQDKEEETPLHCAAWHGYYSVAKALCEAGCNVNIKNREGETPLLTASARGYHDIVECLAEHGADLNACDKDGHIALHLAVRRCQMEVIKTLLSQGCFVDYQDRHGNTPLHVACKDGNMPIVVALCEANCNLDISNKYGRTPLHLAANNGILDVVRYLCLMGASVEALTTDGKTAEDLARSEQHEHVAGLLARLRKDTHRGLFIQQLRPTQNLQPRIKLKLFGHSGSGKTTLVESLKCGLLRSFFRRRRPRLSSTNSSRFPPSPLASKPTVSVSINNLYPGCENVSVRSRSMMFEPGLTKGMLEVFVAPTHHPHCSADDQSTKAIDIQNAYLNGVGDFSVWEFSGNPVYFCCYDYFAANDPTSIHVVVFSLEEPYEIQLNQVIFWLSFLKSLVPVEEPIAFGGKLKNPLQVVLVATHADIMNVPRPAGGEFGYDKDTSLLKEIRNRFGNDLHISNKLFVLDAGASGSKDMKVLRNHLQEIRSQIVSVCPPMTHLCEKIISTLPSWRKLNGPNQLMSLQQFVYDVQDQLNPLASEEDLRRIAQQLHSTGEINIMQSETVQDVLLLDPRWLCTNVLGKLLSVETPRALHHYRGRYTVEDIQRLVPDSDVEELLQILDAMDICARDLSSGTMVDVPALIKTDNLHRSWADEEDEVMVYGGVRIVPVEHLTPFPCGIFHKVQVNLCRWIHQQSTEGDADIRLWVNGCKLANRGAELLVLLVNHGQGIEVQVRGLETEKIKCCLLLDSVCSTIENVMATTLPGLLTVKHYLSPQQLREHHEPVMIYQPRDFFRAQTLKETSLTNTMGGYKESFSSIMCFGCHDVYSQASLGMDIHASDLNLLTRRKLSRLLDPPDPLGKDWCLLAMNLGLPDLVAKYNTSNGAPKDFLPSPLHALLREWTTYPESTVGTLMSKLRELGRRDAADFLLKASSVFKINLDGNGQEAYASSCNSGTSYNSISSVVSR

DDR2 (human) = DDR2 (human) (UniProt Q16832)
DYRK1B (human) = DYRK1B (human) (UniProt Q9Y463)
DYRK2 (human) = DYRK2 (human) (UniProt Q92630)
EPHA1 (human) = EPHA1 (human) (UniProt P21709)
EPHA1 (human), sequence (P21709 whole entry, looked up): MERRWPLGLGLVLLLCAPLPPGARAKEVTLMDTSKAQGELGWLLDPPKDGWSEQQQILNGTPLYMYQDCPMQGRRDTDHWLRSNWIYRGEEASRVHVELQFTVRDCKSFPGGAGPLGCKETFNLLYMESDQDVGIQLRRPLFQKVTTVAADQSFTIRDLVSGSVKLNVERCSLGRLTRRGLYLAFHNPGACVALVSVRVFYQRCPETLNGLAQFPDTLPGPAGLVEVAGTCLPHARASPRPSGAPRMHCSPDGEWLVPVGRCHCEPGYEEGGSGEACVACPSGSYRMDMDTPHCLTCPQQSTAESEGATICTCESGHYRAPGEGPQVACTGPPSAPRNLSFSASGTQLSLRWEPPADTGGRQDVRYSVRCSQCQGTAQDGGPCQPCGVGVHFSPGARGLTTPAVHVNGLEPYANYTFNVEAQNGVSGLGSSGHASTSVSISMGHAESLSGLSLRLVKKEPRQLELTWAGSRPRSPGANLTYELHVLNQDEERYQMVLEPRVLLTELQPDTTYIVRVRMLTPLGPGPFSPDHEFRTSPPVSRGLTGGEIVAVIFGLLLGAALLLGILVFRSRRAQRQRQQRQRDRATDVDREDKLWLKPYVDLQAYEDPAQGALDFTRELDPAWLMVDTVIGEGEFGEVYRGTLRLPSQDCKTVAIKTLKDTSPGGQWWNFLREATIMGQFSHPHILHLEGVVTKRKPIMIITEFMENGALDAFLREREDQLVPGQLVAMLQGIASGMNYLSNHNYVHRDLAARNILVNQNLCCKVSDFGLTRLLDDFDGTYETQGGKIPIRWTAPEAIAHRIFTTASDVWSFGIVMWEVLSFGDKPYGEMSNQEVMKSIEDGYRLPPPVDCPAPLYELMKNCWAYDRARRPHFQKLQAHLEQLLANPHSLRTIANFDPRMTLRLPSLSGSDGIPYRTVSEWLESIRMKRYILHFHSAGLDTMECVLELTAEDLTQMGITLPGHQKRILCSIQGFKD

FLT1 (human) = FLT1 (human) (UniProt P17948)
GRK7 (human) = GRK7 (human) (UniProt Q8WTQ7)
HIPK2 (human) = HIPK2 (human) (UniProt Q9H2X6)
IRAK4 (human) = IRAK4 (human) (UniProt Q9NWZ3)
JAK2 JH1 JH2 (human) = JAK2 JH1 JH2 (human) (UniProt O60674)
JAK2 JH1 JH2 (human), sequence (O60674 whole entry, looked up): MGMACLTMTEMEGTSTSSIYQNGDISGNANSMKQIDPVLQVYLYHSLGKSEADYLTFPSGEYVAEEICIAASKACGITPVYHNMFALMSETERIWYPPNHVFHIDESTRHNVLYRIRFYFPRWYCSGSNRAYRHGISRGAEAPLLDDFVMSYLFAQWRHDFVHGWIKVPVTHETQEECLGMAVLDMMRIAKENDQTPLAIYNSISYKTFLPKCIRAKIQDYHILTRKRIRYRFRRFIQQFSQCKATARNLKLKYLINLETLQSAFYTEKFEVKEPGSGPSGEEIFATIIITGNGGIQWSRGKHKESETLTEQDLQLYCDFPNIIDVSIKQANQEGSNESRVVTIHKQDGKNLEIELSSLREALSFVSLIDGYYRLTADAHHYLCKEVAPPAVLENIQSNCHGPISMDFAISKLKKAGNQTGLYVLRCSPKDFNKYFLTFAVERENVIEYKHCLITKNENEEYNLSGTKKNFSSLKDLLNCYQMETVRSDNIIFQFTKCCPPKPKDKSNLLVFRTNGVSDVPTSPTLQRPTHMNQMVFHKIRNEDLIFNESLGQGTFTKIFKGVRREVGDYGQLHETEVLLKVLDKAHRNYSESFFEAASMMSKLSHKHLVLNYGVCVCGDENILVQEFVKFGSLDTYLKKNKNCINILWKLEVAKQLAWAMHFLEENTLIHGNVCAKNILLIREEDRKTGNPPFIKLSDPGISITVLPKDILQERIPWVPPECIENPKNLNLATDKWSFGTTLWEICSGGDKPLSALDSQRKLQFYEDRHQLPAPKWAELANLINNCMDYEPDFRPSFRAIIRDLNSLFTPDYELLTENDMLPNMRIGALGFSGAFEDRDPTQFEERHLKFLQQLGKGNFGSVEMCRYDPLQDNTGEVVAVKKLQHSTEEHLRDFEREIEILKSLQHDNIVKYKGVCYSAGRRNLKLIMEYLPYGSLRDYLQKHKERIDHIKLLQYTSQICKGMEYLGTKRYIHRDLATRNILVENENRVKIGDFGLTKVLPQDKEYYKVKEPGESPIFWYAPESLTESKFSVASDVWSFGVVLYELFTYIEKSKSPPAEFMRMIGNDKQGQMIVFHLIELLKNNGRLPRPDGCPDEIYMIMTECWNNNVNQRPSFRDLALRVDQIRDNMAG

JAK3 JH1 JH2 (human) = JAK3 JH1 JH2 (human) (UniProt P52333)
LYN (human) = LYN (human) (UniProt P07948)
MARK2 (human) = MARK2 (human) (UniProt Q7KZI7)
MST4 (human) = MST4 (human) (UniProt Q9P289)
MST4 (human), sequence (Q9P289 whole entry, looked up): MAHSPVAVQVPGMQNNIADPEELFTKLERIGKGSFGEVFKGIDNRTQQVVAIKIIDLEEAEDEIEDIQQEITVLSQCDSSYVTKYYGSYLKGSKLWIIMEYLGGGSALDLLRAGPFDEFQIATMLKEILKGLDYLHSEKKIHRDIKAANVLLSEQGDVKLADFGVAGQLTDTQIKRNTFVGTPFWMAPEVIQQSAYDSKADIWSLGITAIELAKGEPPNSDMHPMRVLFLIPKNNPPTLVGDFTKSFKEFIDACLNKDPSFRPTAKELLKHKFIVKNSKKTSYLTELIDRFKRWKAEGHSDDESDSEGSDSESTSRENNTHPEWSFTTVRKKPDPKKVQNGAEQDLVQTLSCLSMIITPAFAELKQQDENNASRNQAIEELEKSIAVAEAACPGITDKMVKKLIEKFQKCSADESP

MYLK (human) = MYLK (human) (UniProt Q15746)
NEK7 (human) = NEK7 (human) (UniProt Q8TDX7)
PHKG2 (human) = PHKG2 (human) (UniProt P15735)
PLK1 (human) = PLK1 (human) (UniProt P53350)
PLK1 (human), sequence (P53350 whole entry, looked up): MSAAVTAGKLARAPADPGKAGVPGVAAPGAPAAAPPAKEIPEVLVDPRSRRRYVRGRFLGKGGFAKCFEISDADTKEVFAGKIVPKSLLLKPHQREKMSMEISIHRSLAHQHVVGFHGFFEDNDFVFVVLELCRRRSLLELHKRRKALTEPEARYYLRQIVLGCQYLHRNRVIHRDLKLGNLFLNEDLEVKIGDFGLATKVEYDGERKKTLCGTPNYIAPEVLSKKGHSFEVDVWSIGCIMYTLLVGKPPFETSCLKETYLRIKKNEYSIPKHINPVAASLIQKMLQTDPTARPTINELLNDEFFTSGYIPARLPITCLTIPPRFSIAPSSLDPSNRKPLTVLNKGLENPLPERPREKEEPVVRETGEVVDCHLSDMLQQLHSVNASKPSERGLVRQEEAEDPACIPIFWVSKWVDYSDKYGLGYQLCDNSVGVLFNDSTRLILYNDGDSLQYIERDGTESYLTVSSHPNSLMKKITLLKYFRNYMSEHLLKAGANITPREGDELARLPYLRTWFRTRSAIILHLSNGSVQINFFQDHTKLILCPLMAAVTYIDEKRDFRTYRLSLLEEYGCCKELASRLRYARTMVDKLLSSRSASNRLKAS

PRKCA (human) = PRKCA (human) (UniProt P17252)
PRKD3 (human) = PRKD3 (human) (UniProt O94806)
PRKG1 (human) = PRKG1 (human) (UniProt Q13976)
RAF1 (human) = RAF1 (human) (UniProt P04049)
RIPK2 (human) = RIPK2 (human) (UniProt O43353)
ROS1 (human) = ROS1 (human) (UniProt P08922)
RPS6KB2 (human) = RPS6KB2 (human) (UniProt Q9UBS0)
SGK2 (human) = SGK2 (human) (UniProt Q9HBY8)
SRPK2 (human) = SRPK2 (human) (UniProt P78362)
STK10 (human) = STK10 (human) (UniProt O94804)
STK17A (human) = STK17A (human) (UniProt Q9UEE5)
STK4 (human) = STK4 (human) (UniProt Q13043)
TAOK1 (human) = TAOK1 (human) (UniProt Q7L7X3)
TBK1 (human) = TBK1 (human) (UniProt Q9UHD2)
TXK (human) = TXK (human) (UniProt P42681)

With `COc1ccc(OC)c2c(=S)c3ccccc3[nH]c12` the residual activity (ABL1 (human)) was 91.7%, the residual activity (ACVRL1 (human)) was 99% and the residual activity (AURKC (human)) was 88.2%. The residual activity (CAMK2G (human)) was 95.8%, the residual activity (CDC42BPB (human)) was 106% and the residual activity (CDK9 CCNK (human)) was 92.2%. For the same compound, the residual activity (CSF1R (human)) was 93.4%, the residual activity (CSNK1D (human)) was 101% and the residual activity (CSNK2A1 (human)) was 100%. The residual activity (DAPK1 (human)) was 106%, the residual activity (DDR2 (human)) was 97.1% and the residual activity (DYRK1B (human)) was 107%. For the same compound, the residual activity (DYRK2 (human)) was 96.8%, the residual activity (EPHA1 (human)) was 89% and the residual activity (FLT1 (human)) was 101%. It also gave a residual activity (GRK7 (human)) of 102%, a residual activity (HIPK2 (human)) of 98.3% and a residual activity (IRAK4 (human)) of 109%. The residual activity (JAK2 JH1 JH2 (human)) was 96%, the residual activity (JAK3 JH1 JH2 (human)) was 96.7% and the residual activity (LYN (human)) was 106% and 96.9%. For the same compound, the residual activity (MARK2 (human)) was 93.9%, the residual activity (MST4 (human)) was 90.8% and the residual activity (MYLK (human)) was 89.8%. The residual activity (NEK7 (human)) was 97.2%, the residual activity (PHKG2 (human)) was 94.6% and the residual activity (PLK1 (human)) was 93.6%. For the same compound, the residual activity (PRKCA (human)) was 95.7%, the residual activity (PRKD3 (human)) was 94.1% and the residual activity (PRKG1 (human)) was 101% and 94.4%. The residual activity (RAF1 (human)) was 88.2%, the residual activity (RIPK2 (human)) was 108% and the residual activity (ROS1 (human)) was 103%. It also gave a residual activity (RPS6KB2 (human)) of 105%, a residual activity (SGK2 (human)) of 96.5% and a residual activity (SRPK2 (human)) of 95.1%. The residual activity (STK10 (human)) was 93.6%, the residual activity (STK17A (human)) was 90.3% and the residual activity (STK4 (human)) was 96.8%. For the same compound, the residual activity (TAOK1 (human)) was 95.7%, the residual activity (TBK1 (human)) was 97.5% and the residual activity (TXK (human)) was 101%.

`CC(=O)O/N=C1\C(=C2\C(=O)Nc3cc(Br)ccc32)Nc2ccccc21` showed a residual activity (ABL1 (human)) of 43.1%, a residual activity (ACVRL1 (human)) of 107% and a residual activity (AURKC (human)) of 86%. The residual activity (CAMK2G (human)) was 70.6%, the residual activity (CDC42BPB (human)) was 94.7% and the residual activity (CDK9 CCNK (human)) was 64.3%. It also gave a residual activity (CSF1R (human)) of 84%, a residual activity (CSNK1D (human)) of 92.3% and a residual activity (CSNK2A1 (human)) of 81.8%. It also gave a residual activity (DAPK1 (human)) of 86.8%, a residual activity (DDR2 (human)) of 89.8% and a residual activity (DYRK1B (human)) of 96%. For the same compound, the residual activity (DYRK2 (human)) was 94.4%, the residual activity (EPHA1 (human)) was 83.2% and the residual activity (FLT1 (human)) was 98.6%. For the same compound, the residual activity (GRK7 (human)) was 99.5%, the residual activity (HIPK2 (human)) was 99.1% and the residual activity (IRAK4 (human)) was 94.1%. For the same compound, the residual activity (JAK2 JH1 JH2 (human)) was 105%, the residual activity (JAK3 JH1 JH2 (human)) was 107% and the residual activity (LYN (human)) was 28.1% and 52.4%. The residual activity (MARK2 (human)) was 74.9%, the residual activity (MST4 (human)) was 78.7% and the residual activity (MYLK (human)) was 74.2%. It also gave a residual activity (NEK7 (human)) of 91.9%, a residual activity (PHKG2 (human)) of 96.6% and a residual activity (PLK1 (human)) of 105%. The residual activity (PRKCA (human)) was 105%, the residual activity (PRKD3 (human)) was 84.9% and the residual activity (PRKG1 (human)) was 82.7% and 86.1%. The residual activity (RAF1 (human)) was 100%, the residual activity (RIPK2 (human)) was 108% and the residual activity (ROS1 (human)) was 105%. The residual activity (RPS6KB2 (human)) was 83.7%, the residual activity (SGK2 (human)) was 92.8% and the residual activity (SRPK2 (human)) was 96.6%. The residual activity (STK10 (human)) was 99.3%, the residual activity (STK17A (human)) was 72.7% and the residual activity (STK4 (human)) was 54.2%. It also gave a residual activity (TAOK1 (human)) of 126%, a residual activity (TBK1 (human)) of 78.5% and a residual activity (TXK (human)) of 46.4%.

Work on `Cn1sc(=O)n(Cc2ccccc2)c1=O` yielded a residual activity (ABL1 (human)) of 104%, a residual activity (ACVRL1 (human)) of 117% and a residual activity (AURKC (human)) of 98.8%. The residual activity (CAMK2G (human)) was 90.1%, the residual activity (CDC42BPB (human)) was 96.4% and the residual activity (CDK9 CCNK (human)) was 97.2%. It also gave a residual activity (CSF1R (human)) of 98.6%, a residual activity (CSNK1D (human)) of 100% and a residual activity (CSNK2A1 (human)) of 95.4%. For the same compound, the residual activity (DAPK1 (human)) was 97.9%, the residual activity (DDR2 (human)) was 102% and the residual activity (DYRK1B (human)) was 103%. The residual activity (DYRK2 (human)) was 104%, the residual activity (EPHA1 (human)) was 106% and the residual activity (FLT1 (human)) was 96.1%. For the same compound, the residual activity (GRK7 (human)) was 112%, the residual activity (HIPK2 (human)) was 99.6% and the residual activity (IRAK4 (human)) was 107%. For the same compound, the residual activity (JAK2 JH1 JH2 (human)) was 91.6%, the residual activity (JAK3 JH1 JH2 (human)) was 106% and the residual activity (LYN (human)) was 90.8% and 98.9%. For the same compound, the residual activity (MARK2 (human)) was 118%, the residual activity (MST4 (human)) was 98.1% and the residual activity (MYLK (human)) was 94.5%. It also gave a residual activity (NEK7 (human)) of 101%, a residual activity (PHKG2 (human)) of 90.6% and a residual activity (PLK1 (human)) of 97.2%. The residual activity (PRKCA (human)) was 71.8%, the residual activity (PRKD3 (human)) was 95.9% and the residual activity (PRKG1 (human)) was 93.2% and 95.9%. The residual activity (RAF1 (human)) was 97.2%, the residual activity (RIPK2 (human)) was 85.4% and the residual activity (ROS1 (human)) was 103%. It also gave a residual activity (RPS6KB2 (human)) of 101%, a residual activity (SGK2 (human)) of 100% and a residual activity (SRPK2 (human)) of 98.1%. For the same compound, the residual activity (STK10 (human)) was 98.1%, the residual activity (STK17A (human)) was 101% and the residual activity (STK4 (human)) was 107%. The residual activity (TAOK1 (human)) was 88.9%, the residual activity (TBK1 (human)) was 102% and the residual activity (TXK (human)) was 99.8%.

With `Cn1nc2c3c(cccc31)C(=O)c1ccccc1-2` the residual activity (ABL1 (human)) was 99.1%, the residual activity (ACVRL1 (human)) was 102% and the residual activity (AURKC (human)) was 89.3%. It also gave a residual activity (CAMK2G (human)) of 109%, a residual activity (CDC42BPB (human)) of 98% and a residual activity (CDK9 CCNK (human)) of 96.5%. The residual activity (CSF1R (human)) was 97%, the residual activity (CSNK1D (human)) was 20.8% and the residual activity (CSNK2A1 (human)) was 90.2%. For the same compound, the residual activity (DAPK1 (human)) was 86.4%, the residual activity (DDR2 (human)) was 95.1% and the residual activity (DYRK1B (human)) was 93.1%. It also gave a residual activity (DYRK2 (human)) of 99.4%, a residual activity (EPHA1 (human)) of 94.8% and a residual activity (FLT1 (human)) of 84.3%. For the same compound, the residual activity (GRK7 (human)) was 113%, the residual activity (HIPK2 (human)) was 105% and the residual activity (IRAK4 (human)) was 97.3%. For the same compound, the residual activity (JAK2 JH1 JH2 (human)) was 95.9%, the residual activity (JAK3 JH1 JH2 (human)) was 107% and the residual activity (LYN (human)) was 96.1% and 97.7%. The residual activity (MARK2 (human)) was 94.1%, the residual activity (MST4 (human)) was 108% and the residual activity (MYLK (human)) was 77.4%. For the same compound, the residual activity (NEK7 (human)) was 93.1%, the residual activity (PHKG2 (human)) was 95.4% and the residual activity (PLK1 (human)) was 97%. For the same compound, the residual activity (PRKCA (human)) was 96.1%, the residual activity (PRKD3 (human)) was 65.5% and the residual activity (PRKG1 (human)) was 93.7% and 96%. The residual activity (RAF1 (human)) was 87%, the residual activity (RIPK2 (human)) was 75.7% and the residual activity (ROS1 (human)) was 104%. It also gave a residual activity (RPS6KB2 (human)) of 94.7%, a residual activity (SGK2 (human)) of 98.9% and a residual activity (SRPK2 (human)) of 97.2%. The residual activity (STK10 (human)) was 94.5%, the residual activity (STK17A (human)) was 83.7% and the residual activity (STK4 (human)) was 78.9%. It also gave a residual activity (TAOK1 (human)) of 100%, a residual activity (TBK1 (human)) of 88.8% and a residual activity (TXK (human)) of 92%.
